Patent US20260226037A1, “MICROTUBULE TARGETING AGENTS” (ARIEL SCIENTIFIC INNOVATIONS LTD., priority 2022, published 2026)
Entries after “also recorded” stand apart in the source; their conditions may differ.

Assays:
RPMI 8226 cells = assay: XTT cytotoxicity, RPMI 8226; type: cell-based; settings: Homo sapiens; RPMI 8226, multiple myeloma, non-resistant; read-out: IC50
In short: (§1)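 Tumor cell panel; XTT readout of cell viability.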

purified tubulin = assay: Tubulin polymerization, cell-free assay; type: biochemical; settings: tubulin 2.00 mg/mL; 1, 15 and 30 μM; 37° C., 100 min; vs vehicle
Method: The effect of the compounds on their ability to inhibit tubulin polymerization, was tested against a vehicle control by evaluating polymerization of purified tubulin in a cell-free assay where tubulin (2.00 mg/mL) was exposed to vehicle control or 1, 15 and 30 μM of the compounds (n=2). Polymerizations were tracked by an increase in fluorescence excitation wavelength is 340-360 nm and emission wavelength at 410-460 nm. Fluorescence was monitored at 37° C. every 30 sec for 100 min.

A2780ADR cells = assay: XTT cytotoxicity, A2780ADR; type: cell-based
Method: (§2) The cytotoxic activity of the novel family was evaluated against various tumor cells, including myeloma cells, acute lymphoblastic leukemia cells, acute monocytic leukemia cells, chronic myelogenous leukemia cells, pancreatic cancer cells, breast cancer cells, uterine sarcoma cells, cervix adenocarcinoma cells, ovary cancer cells, melanoma cells, osteosarcoma cells, prostate cancer cells, lung cancer cells, neuroblastoma cells and colorectal adenocarcinoma cells by XTT assay.

RPMI-MR20 cells = assay: XTT cytotoxicity, RPMI-MR20; type: cell-based
In short: as §1

MES-SA cells = assay: XTT cytotoxicity, MES-SA; type: cell-based; settings: Homo sapiens, poorly differentiated uterine sarcoma, non-resistant
In short: as §1

RPMI8226 cells = assay: Cell cycle distribution by flow cytometry; type: cell-based
Method: Cell cycle arrest is a shared consequence of MTAs treatment. The effects of cell cycle distribution were determined in RPMI8226 cells treated for 6 and 18 hours with a range of concentrations of the molecules. The cells were stained with propidium iodide and cell cycle distribution was measured using a cytoFLEX flow cytometer.

[1] = Water solubility (microscope images); type: physicochemical; settings: compared with benzene, furan, thiophene, thiazole or pyridine analogues
Source text: Solubility of the synthesized molecules was compared to equivalent molecules having a benzene, furan, thiophene, thiazole or pyridine group instead of oxazole group (Table 2).

[2] = system: MESA/SA and MES-SA/DX5, NALM6 and NALM6/ADR, RPMI8226 and RPMI-DO40 cells; assay: Annexin / propidium iodide staining (apoptosis, necrosis); type: cell-based; settings: 72 hours, graded concentrations
RPMI8226 myeloma cells = assay: Xenograft murine myeloma model, antitumor efficacy; type: in vivo, mice
Method: In vivo anti-cancer efficacy of the molecules was evaluated in a xenograft murine myeloma model. Male SCID mice (6-8 weeks old) were maintained in accordance with Institutional Animal Care Use Committee guidelines. Mice were housed in the Animal Research Facility of Ariel University and experiments were performed in accordance with approved protocols. […] Mice were sacrificed when mean tumor volume of vehicle treated group reached 1500 mm3, or mice appeared moribund to prevent unnecessary morbidity. Mean tumor volume represents the average of tumor volume in each treatment group during the experiment. The weight of the tumors was measured at the end of the experiment and expressed as mean tumor weight per group. Body weight is expressed as mean body mice weight per group. The individual relative tumor volume (RTV) was defined as Vx/V1, where Vx is the mean tumor volume in mm3 at a given time and V1 at the start of treatment. Relative tumor volume is determined by calculating RTV (%) (mean RTV of treated group)/(mean RTV of control group)). Relative tumor volume inhibition is determined by calculating RTVI (%) (1-RTV %)

NCI-H69 VCR/R cells = assay: XTT cytotoxicity, NCI-H69 VCR/R; type: cell-based
Method: as §2

[3] = system: colchicine binding site on tubulin protein; assay: EBI competition assay, HELA cells; type: cell-based
MES-SA/DX5 cells = assay: XTT cytotoxicity, MES-SA/DX5; type: cell-based
In short: as §1

For CCCCCOC(=O)c1[nH]c2c(c1C)C(=O)CC(c1ncco1)C2 (stereo not shown) [SMS077, pentyl 3-methyl-6-(oxazol-2-yl)-4-oxo-4,5,6,7-tetrahydro-1H-indole-2-carboxylate], the IC50 (RPMI 8226 cells) was 26 nM, the “rate of tubulin polymerization” value (purified tubulin) was “inhibited the rate of tubulin polymerization in a concentration-dependent manner” and the “IC50 ratio between resistant and non-resistant cells” value (A2780ADR cells; A2780ADR / A2780) was 1.938. The “resistance of cells to treatment” value (A2780ADR cells; A2780ADR ovary carcinoma cells) was “resistant to vincristine but not to SMS077 treatment”, the IC50 (A2780ADR cells; A2780 ADR, A2780ADR, ovarian carcinoma, resistant) was 31 nM and the IC50 (RPMI-MR20 cells; RPMI-MR20, mitoxantrone resistant, read-out: IC50) was 23 nM. For the same molecule, the “IC50 ratio between resistant and non-resistant cells” value (RPMI-MR20 cells; RPMI-MR20 / RPMI 8226) was 0.885, the IC50 (MES-SA cells) was 128 nM and the cell cycle arrest (RPMI8226 cells; 6 hours, IC50, IC50x2.5 and IC50x5 concentrations) was “cell cycle arrest in G2M phase”. For the same molecule, the subG0 phase (RPMI8226 cells; 18 hours of treatment) was “increased in subG0 phase”, the water solubility [1] was “better water solubility” and the “apoptosis and necrosis (annexin, propidium iodide staining)” value [2] was “induced apoptosis and necrosis; also recorded: induces apoptosis and necrosis of treated cells”. For the same molecule, the “decrease of tumor volume as compared to vehicle at the same day” value (“decrease of tumor volume” below) (RPMI8226 myeloma cells; day 8, intraperitoneally) was 0%, the “decrease of tumor volume” value (RPMI8226 myeloma cells; day 11, intraperitoneally) was 40% and the “decrease of tumor volume” value (RPMI8226 myeloma cells; day 25, intraperitoneally) was 52%. The “growth inhibition rate (tumor weight at end of experiment)” value (RPMI8226 myeloma cells; intraperitoneally) was 54%, the IC50 (NCI-H69 VCR/R cells; Homo sapiens, NCI-H69 VCR/R, vincristine resistant) was 48 nM and the “IC50 ratio between resistant and non-resistant cells” value (NCI-H69 VCR/R cells; NCI-H69 VCR/R / NCI-H69) was 0.294. The “resistance of cells to treatment” value (NCI-H69 VCR/R cells; NCI-H69 VCR/R lung carcinoma cells) was “resistant to vincristine but not to SMS077 treatment”, the “binding to the colchicine binding site” value [3] was “bound to the colchicine binding site” and the IC50 (MES-SA/DX5 cells; Homo sapiens, MES-SA/DX5, uterine sarcoma, P-gp overexpression) was 65 nM. The “IC50 ratio between resistant and non-resistant cells” value (MES-SA/DX5 cells; MES-SA/DX5 / MES-SA) was 0.508.
